In experiment [1] the target is T1, Staphylococcus aureus monofunctional glycosyltransferase (SaMGT) (Staphylococcus aureus, UniProt Q7A0I6).
T1 construct: gene mgt; wild-type full-length SaMGT (residues Q28-R269)
Briefly: ITC (VP-ITC, […] °C, sequential binding site model).

Experiment [2] has as its target T2, Staphylococcus aureus monofunctional glycosyltransferase (SaMGT) (Staphylococcus aureus, UniProt Q7A0I6, E100Q).
T2 construct: gene mgt
Briefly: X-ray crystal structure, […] Å (re-refinement of 3HZS, polder omit maps). In kind it is binding.

`C=C(C/C=C(\C)CCC=C(C)C)CCC(C)(C)/C=C/CC/C(C)=C\CO[C@H](COP(=O)(O)O[C@H]1O[C@H](C(N)=O)[C@@](C)(O)[C@H](OC(N)=O)[C@H]1O[C@@H]1O[C@H](CO[C@@H]2O[C@H](CO)[C@@H](O)[C@H](O)[C@H]2O)[C@@H](O[C@@H]2O[C@H](C)[C@@H](O[C@@H]3O[C@H](C(=O)NC4=C(O)CCC4=O)[C@H](O)[C@H](O)[C@H]3O)[C@H](O)[C@H]2NC(C)=O)[C@H](O)[C@H]1NC(C)=O)C(=O)O` [MoeA, moenomycin A]: the Kd – broadly, the constant that tells how readily two partners part at equilibrium – in experiment [1] was 540 nM. For the same compound, the “X-ray crystal structure, 2.1 Å (re-refinement of 3HZS, polder omit maps)” value in experiment [2] was “Overall view of the re-refined structure of SaMGT E100Q mutant with bound MoeA (PDB ID code 6FTB)”.

Values taken from paper PMC6053601, “The role of the jaw subdomain of peptidoglycan glycosyltransferases for lipid II polymerization” (The Cell Surface, 2018).
